Measurements: patent EP4653017A1, “ANTIBODY-DRUG CONJUGATE AND USE THEREOF” (Tyligand Bioscience (Shanghai) Limited, priority 2023, dated 2024)
Structures can show the parent of a compound that is named as a salt. Where two headings read alike, the source gives them in different places.

What was measured:
SK-MEL5 = experiment: Inhibition of tumor cell line proliferation (Table 3), SK-MEL5; format: cell-based; conditions: SK-MEL-5; SK-MEL5, Human melanoma cells
MC38 = experiment: Inhibition of tumor cell line proliferation (Table 3), MC38; format: cell-based; conditions: MC-38; MC38, Mouse colon cancer cells
A20 = experiment: Inhibition of tumor cell line proliferation (Table 3), A20; format: cell-based; conditions: A20, Mouse B lymphoma cells
CT26 cells [1] = experiment: CT26 syngeneic mouse bilateral transplanted tumor model; format: in vivo, BALB/c mice; conditions: for growth inhibition rates of left tumors: left (untreated) tumor, 50 µg compound/mouse (2.5 mg/kg) intratumorally into right flank on days 0 and 4, day 13 after treatment; for tumor growth inhibition rate: right (treated) tumor, 50 µg compound/mouse (2.5 mg/kg) intratumorally on days 0 and 4, 13 days post treatment
Protocol: When tumors grew to an average volume of 100 mm^3, treatments were randomized and started based on tumor size and mouse body weight. The first day of dosing was Day 0. Two doses were administered, 50 µg compound/mouse (i.e., 2.5 mg/kg) was injected intratumorally into the right flank on days 0 and 4, and the same volume of PBS (Hyclone Company, Cat. No. #SH30258.01) was used as a control. The left tumor was left untreated. Control mice were sacrificed after 13 days of dosing and treated mice were sacrificed 21 days later. During the experiment, the tumor volume and body weight were measured three times a week on the left and right sides, and the tumor volume was calculated as V = D × d × d/2 (wherein D represents the long diameter of the tumor and d represents the short diameter of the tumor).

CT26 cells [2] = experiment: Inhibition of CT26 cell proliferation (CellTiter-Glo); format: cell-based, mouse; conditions: for IC50: read-out: CT-26 activity; for inhibitory ability on growth of CT26 tumor cells in vitro (in words): superior to ADU-S100
Protocol: CT26 cells are a mouse colorectal cancer cell line. In this experiment, CellTiter-Glo Luminescence Cell Viability Assay kit from Promega was used to assess the inhibitory activity of the compounds on CT26 cell proliferation.
When CT26 cells (ATCC #CRL-2638) were revived, the cryovial was rapid shaken in a 37°C water bath to thaw with 1 min. The thawed cell suspension was mixed well with DMEM medium (GE Company, Cat. No. #SH30243.01) containing 10% FBS (GIBCO, Cat. No. #10099-141), centrifuged at 1000 rpm for 5 min, and the supernatant was discarded. The cell pellet was resuspended in 5 mL of complete medium (DMEM medium containing 10% FBS), placed in a cell culture flask with a bottom area of 25 cm^2, and cultured in a cell incubator at 37°C, 5% CO2, and 95% humidity. Passage was performed when the confluence rate of cells reached 70%~80%. Referring to the cell passage method at plating, all cells in the flask were transferred to a 15 mL centrifuge tube, centrifuged at 1000 rpm for 5 minutes, and the supernatant was discarded. The cell pellet was resuspended in 5 mL of new complete medium, 1 mL was placed in a cell culture flask with a bottom area of 25 cm^2, and 4 mL of fresh complete medium was added to continue the culture. Plating was performed when the cell confluence rate of cells reached 70% to 80% again. Referring to the cell passage method at plating, 1/5 of the cell suspension was maintained and the remaining 4/5 of the cell suspension was placed in a 15 mL centrifuge tube. The cells were centrifuged, the old medium was discarded, the cells was washed once with DMEM medium (without serum), and centrifuged to remove the supernatant. Cells were resuspended with DMEM medium (without serum). […]. A cell suspension at a density of 1.1 x 10^4 viable cells/mL was prepared using DMEM medium (without serum) and 90 µL of the cell suspension was added to 96-well clear flat-bottom black-walled cell culture plate wells (Corning, Cat. No. #3603) to yield a cell density of 1000 viable cells/well in the plate. A control group without cells, without compounds, and with complete medium only (i.e., culture medium control) was set up, and a control group without compounds and with cells (i.e., cell control) was set up. The plates were incubated overnight in a cell incubator.
A DMSO stock solution of 10 mM compound was first serially diluted at a 3.16-fold dilution ratio with DMSO (Sigma, Cat. No. #D2650) to a ninth concentration and a tenth concentration of DMSO control without compound was set. DMSO solutions containing different concentrations of the compound were then diluted a 10-fold dilution ratio with PBS (Solarbio company, Cat. No. #P1020) to achieve a DMSO content of 10% in each concentration of the compound solution. Finally, 10 µL of the above solution was added to the corresponding cell culture plate to achieve a starting concentration of 100 µM compound, a 3.16-fold dilution ratio of adjacent concentrations, and a DMSO content of 1% in the cell culture plate. The plates were maintained in a cell incubator for an additional 120 hours.
After 120 hours, the CellTiter-Glo reagent (Promega, Cat. No. #G7572) was thawed and the plate was equilibrated at room temperature for 30 min. Then, 100 µL CellTiter-Glo was added to each well of the plate and shaken on an orbital shaker for 5 min to fully lyse the cells. The plate was placed at room temperature for 20 min to stabilize the cold light signal, and the cold light value of each well was scanned with a multifunctional microplate reader (Molecular Devices, Spectramax M3) at full wavelength.
The compound of the present invention and ADU-S100 (MCE, Cat. No. #HY12885A) were used as controls: Clofarabine (Wuhu Huaren Technology, Cat. No. #HR-00701002), Cladribine (CSNpharm, Cat. No. #CSN10004), Gemcitabine Hydrochloride (Shaoyuan, Cat. No. #SY014538), Gemcitabine Prodrug LY2334737 (home-made). […]

A375 = experiment: Inhibition of tumor cell line proliferation (Table 3), A375; format: cell-based; conditions: A-375; A375, Human melanoma cells
THP-1 cells = experiment: Activation of IFN-β secretion by THP-1 cells (IFN-beta ELISA); format: cell-based, human; conditions: for EC50: read-out: THP-1 activity; for STING agonist activity (in words): EC50 stronger than 2',3'-cGAMP, comparable to ADU-S100
4T1 = experiment: Inhibition of tumor cell line proliferation (Table 3), 4T1; format: cell-based; conditions: 4T1, Mouse breast cancer cells
H22 = experiment: Inhibition of tumor cell line proliferation (Table 3), H22; format: cell-based; conditions: H22, Mouse hepatoma cells
Daudi = experiment: Inhibition of tumor cell line proliferation (Table 3), Daudi; format: cell-based; conditions: Human Burkitt's lymphoma cells
B16F10 = experiment: Inhibition of tumor cell line proliferation (Table 3), B16F10; format: cell-based; conditions: B16-F10; B16F10, Mouse melanoma cells
FaDu = experiment: Inhibition of tumor cell line proliferation (Table 3), FaDu; format: cell-based; conditions: Human pharyngeal squamous carcinoma cell
[3] = IFN-β secretion, 24 hours incubation, ELISA
[4] = Mus musculus, CT26, 120 hours incubation, CellTiter-Glo

Row | Compound | growth inhibition rates of left tumors (CT26 cells [1]) | IC50 (CT26 cells [2]; Mus musculus, CT26, 120 h) | EC50 (THP-1 cells; Homo sapiens, THP-1, 24 h) | inhibitory ability on growth of CT26 tumor cells in vitro (in words) (CT26 cells [2]) | STING agonist activity (in words) (THP-1 cells) | other results
1 | Nc1ncnc2c1ncn2[C@@H]1O[C@@H]2CO[P@@](=O)(S)O[C@@H]3[C@H](O)[C@@H](CO[P@@](=O)(S)O[C@H]2[C@H]1O)O[C@H]3n1cnc2c(N)ncnc21 [ADU-S100, reference compound] | 64.2% | > 10000 nM | 1 to 10 µM | – | – | IC50 (SK-MEL5): > 10 µM; IC50 (MC38): > 10 µM; IC50 (A20): 5.3 µM; tumor growth inhibition rate (CT26 cells [1]): 99.1%; IC50 (A375): > 10 µM; IC50 (4T1): > 10 µM; IC50 (H22): > 10 µM; IC50 (Daudi): > 10 µM; IC50 (B16F10): > 10 µM; IC50 (FaDu): > 10 µM
2 | N.N.Nc1nc2c(ncn2C2OC3COP(=O)(S)OC4C(COP(=O)(S)OC2C3O)OC(n2cnc3c(N)nc(F)nc32)C4O)c(=O)[nH]1 (stereo not shown) [CDN-2, (2',3')-cyclo-(Rp,Rp)-[2'-O-thiophosphodiester-guanosine]-[3'-O-thiophosphodiester-2-fluoro-adenosine]diammonium salt] | – | – | – | particularly significant inhibitory ability | significant STING agonist activity | EC50 (THP-1 cells; [3]): 1 to 10 µM
3 | Nc1nc2c(ncn2[C@@H]2O[C@@H]3CO[P@@](=O)(S)O[C@H]4C[C@H](n5cnc6c(N)nc(Cl)nc65)O[C@@H]4CO[P@@](=O)(S)O[C@@H]2[C@@H]3O)c(=O)[nH]1 [CDN-4, (2',3')-cyclo-(Rp,Rp)-[2'-O-thiophosphodiester-guanosine]-[3'-O-thiophosphodiester-2-chloro-2'-deoxy-adenosine]diammonium salt] | 75.3% | 1000 to 10000 nM | 1 to 10 µM | particularly significant inhibitory ability | significant STING agonist activity | –
4 | Nc1nc2c(ncn2[C@@H]2O[C@@H]3CO[P@@](=O)(S)O[C@H]4[C@H](F)[C@H](n5cnc6c(N)nc(Cl)nc65)O[C@@H]4CO[P@@](=O)(S)O[C@H]3[C@H]2O)c(=O)[nH]1 [CDN-5, (3',3')-cyclo-(Rp,Rp)-[3'-O-thiophosphodiester-guanosine]-[3'-O-thiophosphodiester-2-chloro-2'-deoxy-2'-fluoro-beta-adenosine]diammonium salt] | 71.7% | 1000 to 10000 nM | 1 to 10 µM | particularly significant inhibitory ability | significant STING agonist activity | –
5 | Nc1nc2c(ncn2[C@@H]2O[C@@H]3CO[P@](=O)(S)O[C@H]4[C@H](F)[C@H](n5cnc6c(N)nc(Cl)nc65)O[C@@H]4CO[P@@](=O)(S)O[C@@H]2[C@@H]3O)c(=O)[nH]1 [CDN-7, (2',3')-cyclo-(Rp,Sp)-[2'-O-thiophosphodiester-guanosine]-[3'-O-thiophosphodiester-2-chloro-2'-deoxy-2'-fluoro-beta-adenosine]diammonium salt] | – | – | 10.1 to 100 µM | – | – | –
6 | CNc1nc(N)c2ncn([C@@H]3O[C@@H]4CO[P@@](=O)(S)O[C@@H]5[C@H](O)[C@@H](CO[P@@](=O)(S)O[C@H]4[C@@H]3F)O[C@H]5n3cnc4c(=O)[nH]c(N)nc43)c2n1 [CDN-8, (2',3')-cyclo-(Rp,Rp) - [2'-O-thiophosphodiester-guanosine]-[3'-O-thiophosphodiester-2-methylamino-2'-deoxy-2'-fluoro-beta-adenosine] diammonium salt] | – | 1000 to 10000 nM | 1 to 10 µM | particularly significant inhibitory ability | significant STING agonist activity | –
7 | Nc1nc2c(ncn2C2OC3COP(=O)(S)OC4C(COP(=O)(S)OC2C3O)OC(n2cnc3c(N)ncnc32)C4F)c(=O)[nH]1 (stereo not shown) [CDN-11] | – | – | 1 to 10 µM | – | significant STING agonist activity | –
8 | Nc1nc2c(ncn2C2OC3COP(=O)(S)OC4CC(n5cnc6c(N)ncnc65)OC4COP(=O)(S)OC3C2O)c(=O)[nH]1 (stereo not shown) [CDN-12] | – | – | 1 to 10 µM | – | significant STING agonist activity | –
9 | Nc1nc(Cl)nc2c1ncn2[C@H]1C[C@H](O)[C@@H](CO)O1 [Cladribine, cladribine, reference compound] | – | – | – | – | – | IC50 (CT26 cells [2]; [4]): < 1000 nM
10 | Nc1nc(Cl)nc2c1ncn2[C@@H]1O[C@H](CO)[C@@H](O)[C@@H]1F [Clofarabine, clofarabine, reference compound] | – | – | – | – | – | IC50 (CT26 cells [2]; [4]): < 1000 nM
11 | Nc1ccn([C@@H]2O[C@H](CO)[C@@H](O)C2(F)F)c(=O)n1 [Gemcitabine, Gemcitabine Hydrochloride, reference compound] | – | – | – | – | – | IC50 (CT26 cells [2]; [4]): < 1000 nM
12 | (2',3')-cyclo-(Rp,Rp)-[2'-O-dithiophosphodiester-guanosine]-[3'-O-dithiophosphate diester -2-amino-3-methoxy-adenosine]diammonium salt [CDN-1] | – | – | – | particularly significant inhibitory ability | – | EC50 (THP-1 cells; [3]): 10.1 to 100 µM
13 | (3',3')-cyclo-(Rp,Rp)-[3'-O-thiophosphodiester-guanosine]-[3'-O-thiophosphodiester-2-chloro-2'-deoxy-adenosine]diammonium salt [CDN-6] | 67.4% | – | – | particularly significant inhibitory ability | significant STING agonist activity | tumor growth inhibition rate (CT26 cells [1]): 99.5%; IC50 (CT26 cells [2]; 120 hours incubation, CellTiter-Glo): 1000 to 10000 nM; EC50 (THP-1 cells; [3]): 1 to 10 µM
